Series [1] relates to Kunming mice. On the procedure: Kunming mice (n = 6 for each group) were intravenously injected with different concentrations of P1Cm, ranging from 0.075 to 6 mmol/kg (10x IC90), or tirofiban ranging from 0.025 to 2 mmol/kg (10x IC90). Blood pressure and breath were monitored after injection, and the mesentery were observed under microscope after the animals were sacrificed. Mortality within the next 3 days was recorded.

Series [2] concerns plasma coagulation. As to the kind of experiment: Coagulation parameters in plasma (FIB, TT, PT, APTT).
Method: Plasma was collected after centrifugation at 1000 × g for 10 min at room temperature. […] The coagulation parameters, such as activated partial thromboplastin time (APTT), prothrombin time (PT), and thrombin time (TT; Chen et al., [2013]), were recorded, and each assay was performed in triplicate.
For series [3], the system named is carotid arterial thrombosis. The series can be described thus: Ferric chloride-induced carotid arterial thrombosis model (CDFI, pathology). It is filed as in vivo, rat. To be noted: 0.15 mmol/kg tail vein, Wistar rats, n = 6, mean ± SD. On the procedure: Thirty male Wistar rats (250–300 g) were randomly divided into five groups: high-, middle-, and low-dose treated groups of P1Cm, a saline group, and a tirofiban group (n = 6 per group). The rats were operated on the right common carotid artery (Bird et al., [2008]). Briefly, the rat was first anesthetized by an intraperitoneal injection of ketamine (100 mg/kg). The fascia was bluntly dissected to expose the right common carotid artery immediately after a dosage of 0.15, 0.30, or 0.45 mmoL/kg of P1Cm, 0.15 mmoL/kg of tirofiban, or an equal volume of saline applied accordingly via tail vein injection. A 3 × 4 mm piece of filter paper saturated with ferric chloride (10% solution) was placed under the right carotid artery for 20 min and then removed. Thrombus size and blood flow were detected by color Doppler flow imaging (CDFI) (13 MHz phased-array transducer, LOGIQ S6 Color Doppler Ultrasonographer, GE, USA; Chua et al., [2012]). The animals were kept anesthetized during the CDFI measurements.
To obtain fresh samples immediately after measurement, the animals were sacrificed through an intravenous injection of air, and the injured carotid artery was collected for pathological examination. Carotid artery samples were fixed with 10% neutral buffered formalin and embedded in paraffin wax for routine histological analysis with hematoxylin and eosin staining. Morphometric analysis was carried out using a Leica Q500/W microscope (Leica Microsystems, Wetzlar, Germany). The antithrombosis effect was evaluated by calculating the percentage of carotid artery area covered by the thrombus (Hosokawa et al., [2011]).

The test system of series [4] is artery-vein shunt thrombus formation. The series can be described thus: Artery-vein shunt thrombosis model. It is filed as in vivo, rat. On the procedure: Fifty male Wistar rats (250–300 g) were randomly divided into five groups: high-, middle-, and low-dose groups of P1Cm, a saline group, and a tirofiban group (n = 10 per group). The animals were treated with the same concentrations as in the previous thrombosis model, 0.15, 0.30, or 0.45 mmoL/kg of P1Cm, 0.15 mmoL/kg of tirofiban, or an equal volume of saline by tail vein injection after being anesthetized by an intraperitoneal injection of ketamine (100 mg/kg). The operation was carried out as previously reported (Sato et al., [1998]; Jing et al., [2011]). Briefly, the right carotid and left jugular veins were separated. An 8 cm silk thread was placed inside a polyethylene tube filled with heparin sodium solution (50 IU/mL). The right carotid and left jugular veins were connected with the tube. One end of the tube containing the thread was inserted into the left jugular vein, and the other end was inserted into the right carotid artery. Blood was allowed to flow from the right carotid artery to the left jugular vein through the polyethylene tube for 15 min. The tube was then removed, and the weight of the attached wet thrombus on the thread was measured immediately. The rats were sacrificed through an intravenous injection of air.

[5] abbreviates: dosage IC50 (P1Cm 0.075, tirofiban 0.025 mmol/kg), i.v., n = 6, within 3 days.
The mark [6] stands for this setting: dosage IC90, i.v., n = 6, within 3 days.

The source of these data is article PMC4782163, “A Novel Pentapeptide Targeting Integrin β3-Subunit Inhibits Platelet Aggregation and Its Application in Rat for Thrombosis Prevention” (Frontiers in Pharmacology, 2016).

Read-outs that look alike come from different tables or passages of the source. Where a SMILES comes first, the peptide text is derived from it.

As for `CC[C@H](C)[C@H](N)C(=O)N[C@@H](CCCNC(=N)N)C(=O)N[C@H](C(=O)N1CCC[C@H]1C(=O)N[C@@H](CCCCN)C(=O)O)[C@@H](C)O` [Peptide P1Cm] (H-IRTPK-OH), the Mortality in series [1] (setting [5]) came to 0; in series [1] (setting [6]), 0; in series [1] (mouse, in vivo, iv) it was 0.

`CCCCS(=O)(=O)N[C@@H](Cc1ccc(OCCCCC2CCNCC2)cc1)C(=O)O` [Tirofiban]: the Mortality in series [1] (dosage 10x IC90 (P1Cm 6, tirofiban 2 mmol/kg), i.v., n = 6, within 3 days) is reported as 2/6. This molecule displayed a Mortality in series [1] (setting [5]) of 0. For the same molecule, the Mortality in series [1] (setting [6]) was 0/6. Also, the “Effect on coagulation parameters” value in series [2] (0.15 mM, P < 0.05) was “apparently inhibited the coagulation and affected the parameters”. In series [2] (tirofiban group (0.15 mM), 5 min 37°C), this molecule showed an FIB of 4.23 ± 0.71 g/L. Also, in series [3], the “PSFV (peak systolic flow velocity)” value is listed as 84.2 ± 3.50 cm/s, the “Thrombosis SIZE/area” value is on record as 0.007 ± 0.001^* cm^2 and the “VSR (vascular stenosis rate)” value is 28.25 ± 5.83 %. The “EMW (thrombosis wet weight)” value in series [4] (0.15 mmol/kg tail vein, Wistar rats, 15 min shunt, n = 10, mean ± SD) is reported as 27.51 ± 4.03 mg. In addition, the “Decrease of thrombus weight vs saline group” value in series [4] (0.15 (mM in the source), rats) was found to be 39.92%.
